Results taken from patent US10035790B2, “RORγ modulators” (BRISTOL-MYERS SQUIBB COMPANY, priority 2012, dated 2018).

Molecular target: T1, ligand binding domain of human RORγ (A262-S507) (Homo sapiens, UniProt P51449)
T1 construct: made in house; host or cells: E. coli
T1 sequence (P51449 262-507): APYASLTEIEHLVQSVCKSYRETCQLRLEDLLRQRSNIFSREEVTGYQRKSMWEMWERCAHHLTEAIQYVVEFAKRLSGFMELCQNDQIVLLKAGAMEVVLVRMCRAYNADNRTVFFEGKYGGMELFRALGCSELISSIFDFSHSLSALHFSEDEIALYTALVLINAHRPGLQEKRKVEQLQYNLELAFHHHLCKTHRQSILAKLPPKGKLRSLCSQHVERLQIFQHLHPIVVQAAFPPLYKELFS
Assay: General RORγ SPA binding assay (competition with [3H]25-hydroxycholesterol)
Details: IC50, RORγ SPA binding assay, inhibition of [3H]25-hydroxycholesterol binding
In short: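 N-terminally His-tagged protein was expressed in E. coli and nickel-purified. Then 50 nM protein was preincubated with compound for 15 min at room temperature in PBS with 0.5% fatty acid free BSA, followed by radioligand for 15 min and copper His-tag SPA beads for 30 min. IC50 came from percent inhibition of binding.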

For Nc1ncc(C(=O)COc2ccnc(C(F)(F)F)n2)c(C2CCN(C(=O)Oc3c(F)cccc3F)CC2)n1 [Compound M3, 2,6-Difluorophenyl 4-[2-amino-5-({[2-(trifluoromethyl)pyrimidin-4-yl]oxy}acetyl)pyrimidin-4-yl]piperidine-1-carboxylate], the IC50 was 0.0191 µM.

Same assay, conditions: RORγ SPA binding assay, inhibition of [3H]25-hydroxycholesterol binding; read-out: IC50

In order of falling IC50:
1. Cc1cc(C)cc(C(=O)NCc2cnc(C)nc2C2CCN(C(=O)Cc3c(F)cccc3F)CC2)c1 [Compound K1, N-((4-(1-(2-(2,6-Difluorophenyl)acetyl)piperidin-4-yl)-2-methylpyrimidin-5-yl)methyl)-3,5-dimethylbenzamide]  4.11 µM
2. CCn1c(C)nc(C2CCN(C(=O)Cc3c(F)cccc3F)CC2)c(C(=O)NCc2cccc(C(F)(F)F)n2)c1=O [Compound I8, 4-(1-(2-(2,6-Difluorophenyl)acetyl)piperidin-4-yl)-1-ethyl-2-methyl-6-oxo-N-((6-(trifluoromethyl)pyridin-2-yl)methyl)-1,6-dihydropyrimidine-5-carboxamide]  2.29 µM
3. Cc1ncc(C(=O)NOc2ccccc2)c(C2CCN(C(=O)Cc3c(F)cccc3F)CC2)n1 [Compound H7, 4-(1-(2-(2,6-difluorophenyl)acetyl)piperidin-4-yl)-2-methyl-N-phenoxypyrimidine-5-carboxamide]  1.75 µM
4. Cc1ncc(C(=O)NOc2cc(F)cc(Cl)c2)c(C2CCN(C(=O)Cc3c(F)cccc3F)CC2)n1 [Compound H6, N-(3-chloro-5-fluorophenoxy)-4-(1-(2-(2,6-difluorophenyl)acetyl)piperidin-4-yl)-2-methylpyrimidine-5-carboxamide]  1.63 µM
5. Cc1nc(C2CCN(C(=O)Cc3c(F)cccc3F)CC2)c(C(=O)NCc2cccc(C(F)(F)F)n2)c(=O)n1C [Compound I7, 4-(1-(2-(2,6-Difluorophenyl)acetyl)piperidin-4-yl)-1,2-dimethyl-6-oxo-N-((6-(trifluoromethyl)pyridin-2-yl)methyl)-1,6-dihydropyrimidine-5-carboxamide]  0.654 µM
6. Cc1nc(C)c(C(=O)NOc2cccc(Cl)c2)c(C2CCN(C(=O)Cc3c(F)cccc3F)CC2)n1 [Compound H5, N-(3-chlorophenoxy)-4-(1-(2-(2,6-difluorophenyl)acetyl)piperidin-4-yl)-2,6-dimethylpyrimidine-5-carboxamide]  0.503 µM
7. Cc1ncc(C(=O)NOc2cccc(OC(F)(F)F)c2)c(C2CCN(C(=O)Cc3c(F)cccc3F)CC2)n1 [Compound H4, 4-(1-(2-(2,6-difluorophenyl)acetyl)piperidin-4-yl)-2-methyl-N-(3-(trifluoromethoxy)phenoxy)pyrimidine-5-carboxamide]  0.294 µM
8. O=C(COc1ccnc(C(F)(F)F)n1)c1cnc(NCCF)nc1C1CCN(C(=O)Nc2c(F)cccc2F)CC1 [Compound M7, N-(2,6-Difluorophenyl)-4-{2-[(2-fluoroethyl)amino]-5-({[2-(trifluoromethyl)pyrimidin-4-yl]oxy}acetyl)pyrimidin-4-yl}piperidine-1-carboxamide]  0.159 µM
9. Cc1ncc(C(=O)NOc2cccc(Cl)c2)c(C2CCN(C(=O)Cc3c(F)cccc3F)CC2)n1 [Compound H3, N-(3-chlorophenoxy)-4-(1-(2-(2,6-difluorophenyl)acetyl)piperidin-4-yl)-2-methylpyrimidine-5-carboxamide]  0.084 µM
10. O=C(Cc1c(F)cccc1F)N1CCC(c2ncncc2C(=S)NCc2ccc(Cl)c(Cl)c2)CC1 [Compound L1, N-(3,4-Dichlorobenzyl)-4-(1-(2-(2,6-difluorophenyl)acetyl)piperidin-4-yl)pyrimidine-5-carbothioamide]  0.081 µM
11. Cc1nc(NCc2ccnc(C(F)(F)F)c2)c(C(=O)NCc2ccnc(C(F)(F)F)c2)c(C2CCN(C(=O)Cc3c(F)cccc3F)CC2)n1 [Compound I2, 4-{1-[(2,6-Difluorophenyl)acetyl]piperidin-4-yl}-2-methyl-N-{[2-(trifluoromethyl)pyridin-4-yl]methyl}-6-({[2-(trifluoromethyl)pyridin-4-yl]methyl}amino)pyrimidine-5-carboxamide]  0.071 µM
12. Cc1nc(C2CCN(C(=O)Cc3c(F)cccc3F)CC2)c(C(=O)NCc2ccnc(C(F)(F)F)c2)c(=O)[nH]1 [Compound I5, 4-(1-(2-(2,6-difluorophenyl)acetyl)piperidin-4-yl)-2-methyl-6-oxo-N-((2-(trifluoromethyl)pyridin-4-yl)methyl)-1,6-dihydropyrimidine-5-carboxamide]  0.0693 µM
13. Cc1nc(C2CCN(C(=O)Cc3c(F)cccc3F)CC2)c(/C=N/Oc2cccc(C(F)(F)F)c2)c(=O)[nH]1 [Compound I6, (E)-4-(1-(2-(2,6-Difluorophenyl)acetyl)piperidin-4-yl)-2-methyl-6-oxo-1,6-dihydropyrimidine-5-carbaldehyde O-3-(trifluoromethyl)phenyl oxime]  0.0609 µM
14. Cc1cc(C)cc(ONC(=O)c2cnc(C)nc2C2CCN(C(=O)Cc3c(F)cccc3F)CC2)c1 [Compound H2, 4-(1-(2-(2,6-difluorophenyl)acetyl)piperidin-4-yl)-N-(3,5-dimethylphenoxy)-2-methylpyrimidine-5-carboxamide]  0.049 µM
15. Cc1nc(C2CCN(C(=O)Cc3c(F)cccc3F)CC2)c(C(=O)NCc2cccc(C(F)(F)F)n2)c(=O)[nH]1 [Compound I1, 4-{1-[(2,6-Difluorophenyl)acetyl]piperidin-4-yl}-2-methyl-6-oxo-N-{[6-(trifluoromethyl)pyridin-2-yl]methyl}-1,6-dihydropyrimidine-5-carboxamide]  0.0403 µM
16. Cc1cc(C)cc(C/C=C\c2cnc(C)nc2C2CCN(C(=O)Cc3c(F)cccc3F)CC2)c1 [Compound J2, (Z)-2-(2,6-Difluorophenyl)-1-(4-(5-(3-(3,5-dimethylphenyl)prop-1-enyl)-2-methylpyrimidin-4-yl)piperidin-1-yl)ethanone]  0.028 µM
17. Cc1ncc(C(=O)COc2cccc(Cl)c2)c(C2CCN(C(=O)Cc3c(F)cccc3F)CC2)n1 [Compound M1, 2-(3-Chlorophenoxy)-1-(4-(1-(2-(2,6-difluorophenyl)acetyl)piperidin-4-yl)-2-methylpyrimidin-5-yl)ethanone]  0.026 µM
18. CSc1ncc(C(=O)COc2ccnc(C(F)(F)F)n2)c(C2CCN(C(=O)Nc3c(F)cccc3F)CC2)n1 [Compound M2, N-(2,6-Difluorophenyl)-4-[2-(methylthio)-5-({[2-(trifluoromethyl)pyrimidin-4-yl]oxy}acetyl)pyrimidin-4-yl]piperidine-1-carboxamide]  0.0186 µM
19. Nc1ncc(C(=O)COc2ccnc(C(F)(F)F)n2)c(C2CCN(C(=O)Cc3c(F)cccc3F)CC2)n1 [Compound M5, 1-(2-Amino-4-{1-[(2,6-difluorophenyl)acetyl]piperidin-4-yl}pyrimidin-5-yl)-2-{[2-(trifluoromethyl)pyrimidin-4-yl]oxy}ethanone]  0.0163 µM
20. Nc1ncc(C(=O)COc2ccnc(C(F)(F)F)n2)c(C2CCN(C(=O)Nc3c(F)cccc3F)CC2)n1 [Compound M6, 4-[2-Amino-5-({[2-(trifluoromethyl)pyrimidin-4-yl]oxy}acetyl)pyrimidin-4-yl]-N-(2,6-difluorophenyl)piperidine-1-carboxamide]  0.0122 µM
21. Cc1nc(C2CCN(C(=O)Cc3c(F)cccc3F)CC2)c(C(=O)NCc2cccc(Cl)c2)c(=O)[nH]1 [Compound I4, N-(3-chlorobenzyl)-4-(1-(2-(2,6-difluorophenyl)acetyl)piperidin-4-yl)-2-methyl-6-oxo-1,6-dihydropyrimidine-5-carboxamide]  0.0109 µM
22. Cc1cc(C)cc(CNC(=O)c2c(C3CCN(C(=O)Cc4c(F)cccc4F)CC3)nc(C)[nH]c2=O)c1 [Compound I3, 4-(1-(2-(2,6-Difluorophenyl)acetyl)piperidin-4-yl)-N-(3,5-dimethylbenzyl)-2-methyl-6-oxo-1,6-dihydropyrimidine-5-carboxamide]  0.0107 µM
23. Cc1cc(C)cc(CCCc2cnc(C)nc2C2CCN(C(=O)Cc3c(F)cccc3F)CC2)c1 [Compound J3, 2-(2,6-Difluorophenyl)-1-(4-(5-(3-(3,5-dimethylphenyl)propyl)-2-methylpyrimidin-4-yl)piperidin-1-yl)ethanone]  0.0077 µM
24. Cc1ncc(C(=O)COc2cccc(C(F)(F)F)n2)c(C2CCN(C(=O)Nc3c(F)cccc3F)CC2)n1 [Compound M4, N-(2,6-Difluorophenyl)-4-[2-methyl-5-({[6-(trifluoromethyl)pyridin-2-yl]oxy}acetyl)pyrimidin-4-yl]piperidine-1-carboxamide]  0.0065 µM
25. Cc1nc(N)nc(C2CCN(C(=O)Nc3c(F)cccc3F)CC2)c1C(=O)COc1ccnc(C(F)(F)F)n1 [Compound M10, 4-[2-Amino-6-methyl-5-({[2-(trifluoromethyl)pyrimidin-4-yl]oxy}acetyl)pyrimidin-4-yl]-N-(2,6-difluorophenyl)piperidine-1-carboxamide]  0.0053 µM
26. Cc1nc(C)c(C(O)COc2ccnc(C(F)(F)F)n2)c(C2CCN(C(=O)Nc3c(F)cccc3F)CC2)n1 (stereo not shown) [Compound M9, N-(2,6-Difluorophenyl)-4-[5-(1-hydroxy-2-{[2-(trifluoromethyl)pyrimidin-4-yl]oxy}ethyl)-2,6-dimethylpyrimidin-4-yl]piperidine-1-carboxamide]  0.002 µM
27. Cc1nc(C)c(C(=O)COc2ccnc(C(F)(F)F)n2)c(C2CCN(C(=O)Nc3c(F)cccc3F)CC2)n1 [Compound M8, N-(2,6-Difluorophenyl)-4-[2,6-dimethyl-5-({[2-(trifluoromethyl)pyrimidin-4-yl]oxy}acetyl)pyrimidin-4-yl]piperidine-1-carboxamide]  0.0017 µM
